One test deals with T1, KRAS WT (Homo sapiens, UniProt P01116).
T1 construct: made in house; host or cells: E. coli BL21 (DE3)
The test is described as follows: HTRF assay, interaction of GST-tagged K-Ras with His-tagged hSOS1 (KRAS wildtype). In kind it is biochemical. The settings on record: <500 nM, read-out: Inhibition of KRAS WT (IC50). The essentials:
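GST-K-Ras (G12S or WT) with anti-GST-Eu donor mixed with His-hSOS1 and anti-6His-XL665 acceptor in ~5 mM HEPES pH 7.4, 150 mM NaCl, 1 mM DTT, 0.05% BSA, 0.0025% Igepal. After ~10 min or longer, HTRF 665/620 nm ratio read.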

For the next test, the target named is T2, KRAS G12S (Homo sapiens, UniProt P01116, G12S).
T2 construct: made in house; host or cells: E. coli BL21 (DE3)
T2 sequence (P01116 1-188 isoform P01116-2 G12S): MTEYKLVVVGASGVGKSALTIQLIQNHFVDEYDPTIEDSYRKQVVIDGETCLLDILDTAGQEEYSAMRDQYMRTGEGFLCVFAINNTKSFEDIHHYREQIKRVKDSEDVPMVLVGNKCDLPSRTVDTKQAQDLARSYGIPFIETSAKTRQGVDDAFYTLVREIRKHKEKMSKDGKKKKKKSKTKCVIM
The test is described as follows: HTRF assay, interaction of GST-tagged K-Ras with His-tagged hSOS1 (KRAS G12S). In kind it is biochemical. The settings on record: <500 nM, read-out: Inhibition of KRAS G12S (IC50). The text has this: This assay can be also used to assess a selective inhibition or reduction of signaling output of a mutant Ras protein relative to a wildtype, or relative to a different mutant Ras protein. For example, the equilibrium interaction of wildtype KRAS or K-Ras mutant (e.g., wildtype or a mutant thereof) with SOS1 (e.g., hSOS1) can be assessed as a proxy or an indication for the ability of a subject compound to bind and inhibit Ras protein. The HTRF assay detects from (i) a fluorescence resonance energy transfer (FRET) donor (e.g., antiGST-Europium) that is bound to GST-tagged K-Ras mutant to (ii) a FRET acceptor (e.g., anti-6His-XL665) bound to a His-tagged hSOS1.
The assay buffer can contain ˜5 mM HEPES pH 7.4, ˜150 mM NaCl, ˜1 mM DTT, 0.05% BSA and 0.0025% (v/v) Igepal. A Ras working solution is prepared in an assay buffer containing typically a suitable amount of the protein construct (e.g., GST-tagged K-Ras mutant) and the FRET donor (e.g., antiGST-Eu(K) from Cisbio, France). A SOS1 working solution is prepared in an assay buffer containing suitable amount of the protein construct (e.g., His-hSOS1) and the FRET acceptor (e.g., anti-6His-XL665 from Cisbio, France). A suitable amount of the protein construct will depend on the range of activity or range of IC50 values being detected or under investigation. For detecting an IC50 within a range of 500 nM, the protein constructs of the same range of molarity can be utilized.
A fixed volume of DMSO with or without test compound is transferred into a 384-well plate. Ras working solution is added to all wells of the test plate. SOS1 working solution is added to all wells except for those that are subsequently filled with inhibitor control solution. Upon incubation for about 10 minutes or longer, the fluorescence is measured with a M1000Pro plate reader (Tecan) using HTRF detection (excitation 337 nm, emission 1: 620 nm, emission 2: 665 nm). Compounds are tested in duplicate at different concentrations (for example, 10 μM, 2.5 μM, 0.63 μM, 0.16 μM, 0.04 μM, 0.01 μM test compound). The ratiometric data (i.e., emission 2 divided by emission 1) is used to calculate IC50 values against Ras using GraphPad Prism (GraphPad software). Signaling output measured in terms of IC50 values can be obtained and a ratio of IC50 against one mutant relative to another mutant can be calculated. For instance, a selective reduction of K-Ras G12S signaling output can be evidenced by a ratio greater than one. In particular, a selective reduction of K-Ras G12S signaling relative to K-Ras WT signaling is evidenced if the ratio of IC50 (against K-Ras WT) to IC50 (against K-Ras G12S) is greater than 1.
On the technique in general: In TR-FRET formats the signal depends on donor and acceptor labels being close together.

This is an account of results in patent US12606572B2, “Substituted heterocycles and uses thereof” (Kumquat Biosciences Inc., priority 2023, dated 2026).

Molecules are shown by their SMILES.

T1 sequence (P01116 1-188 isoform P01116-2): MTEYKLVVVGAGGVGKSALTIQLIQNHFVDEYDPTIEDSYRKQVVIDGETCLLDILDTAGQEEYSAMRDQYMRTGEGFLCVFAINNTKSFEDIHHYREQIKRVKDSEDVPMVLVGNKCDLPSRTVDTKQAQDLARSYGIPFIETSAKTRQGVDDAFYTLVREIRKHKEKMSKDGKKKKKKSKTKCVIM

Turning to `N#Cc1c(N)sc2c(F)ccc(-c3c(Cl)c4c5c(nc(OC[C@@]67CCCN6C[C@H](F)C7)nc5c3F)N(CC3CN(C(=O)/C=C/C5CC5)C3)CCO4)c12` [Compound 418, 2-amino-4-(8-chloro-4-((1-((E)-3-cyclopropylacryloyl)azetidin-3-yl)methyl)-10-fluoro-2-(((2R,7aS)-2-fluorotetrahydro-1H-pyrrolizin-7a(5H)-yl)methoxy)-5,6-dihydro-4H-[1,4]oxazepino [5,6,7-de]quinazolin-9-yl)-7-fluorobenzo[b]thiophene-3-carbonitrile], the IC50 on KRAS WT and on KRAS G12S was under 500 nM throughout.

For `C=C(F)C(=O)N1CC(CN2CCOc3c(Cl)c(-c4ccc(F)c5sc(N)c(C#N)c45)c(F)c4nc(OC[C@@]56CCCN5C[C@H](F)C6)nc2c34)C1` [Compound 491, 2-amino-4-(8-chloro-10-fluoro-4-((1-(2-fluoroacryloyl)azetidin-3-yl)methyl)-2-(((2R,7aS)-2-fluorotetrahydro-1H-pyrrolizin-7a(5H)-yl)methoxy)-5,6-dihydro-4H-[1,4]oxazepino[5,6,7-de]quinazolin-9-yl)-7-fluorobenzo[b]thiophene-3-carbonitrile], the IC50 at KRAS WT and at KRAS G12S was under 500 nM throughout.

Take `C[C@@H]1[C@H](N2CCOc3c(Cl)c(-c4ccc(F)c5sc(N)c(C#N)c45)c(F)c4nc(OC[C@@]56CCCN5C[C@H](F)C6)nc2c34)CCN1C(=O)n1cnc(F)n1` (single isomer, unassigned) [Compound 426]: the half-maximal inhibitory concentration (IC50) at KRAS WT and at KRAS G12S was under 500 nM throughout.

On to `C[C@H](O)[C@H]1COc2c(Cl)c(-c3ccc(F)c4sc(N)c(C#N)c34)c(F)c3nc(OC[C@@]45CCCN4C[C@H](F)C5)nc(c23)N1CC1CCN(C(=O)n2ccnc2)C1` (stereo partly drawn) [Compound 419, 4-((5R)-4-((1-(1H-imidazole-1-carbonyl)pyrrolidin-3-yl)methyl)-8-chloro-10-fluoro-2-(((2R,7aS)-2-fluorotetrahydro-1H-pyrrolizin-7a(5H)-yl)methoxy)-5-((S)-1-hydroxyethyl)-5,6-dihydro-4H-[1,4]oxazepino [5,6,7-de]quinazolin-9-yl)-2-amino-7-fluorobenzo[b] thiophene-3-carbonitrile], for which the half-inhibitory concentration (IC50) at KRAS WT and at KRAS G12S was under 500 nM throughout.

In the case of `CC(C)(C)[C@@H]1[C@H](CN2CCOc3c(Cl)c(-c4ccc(F)c5sc(N)c(C#N)c45)c(F)c4nc(OC[C@@]56CCCN5C[C@H](F)C6)nc2c34)CN1C(=O)n1cnc(F)n1` (single isomer, unassigned) [Compound 434], the IC50 at KRAS WT and at KRAS G12S was under 500 nM in each case.

For the compound `C[C@H](O)[C@H]1COc2c(Cl)c(-c3ccc(F)c4sc(N)c(C#N)c34)c(F)c3nc(OC[C@@]45CCCN4C[C@H](F)C5)nc(c23)N1CC1CN(C(=O)n2ccnc2)C1` [Compound 427, 4-((5R)-4-((1-(1H-imidazole-1-carbonyl)azetidin-3-yl)methyl)-8-chloro-10-fluoro-2-(((2R,7aS)-2-fluorotetrahydro-1H-pyrrolizin-7a(5H)-yl)methoxy)-5-((S)-1-hydroxyethyl)-5,6-dihydro-4H-[1,4]oxazepino [5,6,7-de]quinazolin-9-yl)-2-amino-7-fluorobenzo[b] thiophene-3-carbonitrile], the concentration for half-maximal inhibition (IC50) at KRAS WT and on KRAS G12S was under 500 nM in each case.

With `CC(C)[C@@H]1[C@@H](CN2c3nc(OC[C@@]45CCCN4C[C@H](F)C5)nc4c(F)c(-c5ccc(F)c6sc(N)c(C#N)c56)c(Cl)c(c34)OC[C@@H]2[C@H](C)O)CN1C(=O)n1ccnc1` (single isomer, unassigned) [Compound 410], the IC50 at KRAS WT and at KRAS G12S was under 500 nM throughout.

As for `C[C@@H]1CCOc2c(Cl)c(-c3ccc(F)c4sc(N)c(C#N)c34)c(F)c3nc(OC[C@@]45CCCN4C[C@H](F)C5)nc(c23)N1CC1CCN(C(=O)n2ccnc2)C1` (stereo partly drawn) [Compound 417, 4-((5R)-4-((1-(1H-imidazole-1-carbonyl)pyrrolidin-3-yl)methyl)-9-chloro-11-fluoro-2-(((2R, 7aS)-2-fluorotetrahydro-1H-pyrrolizin-7a(5H)-yl)methoxy)-5-methyl-4,5,6,7-tetrahydro-[1,5]oxazocino [4,3,2-de]quinazolin-10-yl)-2-amino-7-fluorobenzo [b]thiophene-3-carbonitrile], the half-inhibitory concentration (IC50) at KRAS WT and at KRAS G12S was under 500 nM each time.

As for `C[C@H](O)[C@H]1COc2c(Cl)c(-c3ccc(F)c4sc(N)c(C#N)c34)c(F)c3nc(OC[C@@]45CCCN4C[C@H](F)C5)nc(c23)N1CCN(C)C(=O)n1ccnc1` [Compound 449, N-(2-((5R)-9-(2-amino-3-cyano-7-fluorobenzo[b]thiophen-4-yl)-8-chloro-10-fluoro-2-(((2R,7aS)-2-fluorotetrahydro-1H-pyrrolizin-7a(5H)-yl)methoxy)-5-((S)-1-hydroxyethyl)-5,6-dihydro-4H-[1,4]oxazepino [5,6,7-de]quinazolin-4-yl)ethyl)-N-methyl-1H-imidazole-1-carboxamide], the half-maximal inhibitory concentration (IC50) on KRAS WT and at KRAS G12S was under 500 nM in each case.

As to `N#CCC1([C@@H]2[C@H](CN3CCOc4c(Cl)c(-c5ccc(F)c6sc(N)c(C#N)c56)c(F)c5nc(OC[C@@]67CCCN6C[C@H](F)C7)nc3c45)CN2C(=O)n2ccnc2)CC1` [Compound 442, 2-amino-4-(8-chloro-4-(((2S,3R)-2-(1-(cyanomethyl)cyclopropyl)-1-(1H-imidazole-1-carbonyl)azetidin-3-yl)methyl)-10-fluoro-2-(((2R,7aS)-2-fluorotetrahydro-1H-pyrrolizin-7a(5H)-yl)methoxy)-5,6-dihydro-4H-[1,4]oxazepino [5,6,7-de]quinazolin-9-yl)-7-fluorobenzo[b]thiophene-3-carbonitrile], the concentration for half-maximal inhibition (IC50) on KRAS WT and on KRAS G12S was under 500 nM in each case.

Regarding `Cc1cn(C(=O)N2CC[C@@H](N3CCOc4c(Cl)c(-c5ccc(F)c6sc(N)c(C#N)c56)c(F)c5nc(OC[C@@]67CCCN6C[C@H](F)C7)nc3c45)[C@H]2C)c(C)n1` [Compound 403, 2-amino-4-(8-chloro-4-((2R,3R)-1-(2,4-dimethyl-1H-imidazole-1-carbonyl)-2-methylpyrrolidin-3-yl)-10-fluoro-2-(((2R,7aS)-2-fluorotetrahydro-1H-pyrrolizin-7a(5H)-yl)methoxy)-5,6-dihydro-4H-[1,4]oxazepino[5,6,7-de]quinazolin-9-yl)-7-fluorobenzo[b]thiophene-3-carbonitrile], the IC50 at KRAS WT and at KRAS G12S was under 500 nM throughout.

For `CC1([C@@H]2[C@H](CN3CCCOc4c(Cl)c(-c5ccc(F)c6sc(N)c(C#N)c56)c(F)c5nc(OC[C@@]67CCCN6C[C@H](F)C7)nc3c45)CN2C(=O)n2ccnc2)CC1` [Compound 494, 4-(4-(((2S,3R)-1-(1H-imidazole-1-carbonyl)-2-(1-methylcyclopropyl)azetidin-3-yl)methyl)-9-chloro-11-fluoro-2-(((2R,7aS)-2-fluorotetrahydro-1H-pyrrolizin-7a(5H)-yl)methoxy)-4,5,6,7-tetrahydro-[1,5]oxazocino [4,3,2-de]quinazolin-10-yl)-2-amino-7-fluorobenzo[b] thiophene-3-carbonitrile], the 50% inhibitory concentration (IC50) on KRAS WT and at KRAS G12S was under 500 nM each time.

With `N#Cc1c(N)sc2c(F)ccc(-c3c(Cl)c4c5c(nc(OC[C@@]67CCCN6C[C@H](F)C7)nc5c3F)N(CC3CN(C(=O)/C=C/C5COC5)C3)CCO4)c12` [Compound 475, 2-amino-4-(8-chloro-10-fluoro-2-(((2R,7aS)-2-fluorotetrahydro-1H-pyrrolizin-7a(5H)-yl)methoxy)-4-((1-((E)-3-(oxetan-3-yl)acryloyl)azetidin-3-yl)methyl)-5,6-dihydro-4H-[1,4]oxazepino[5,6,7-de]quinazolin-9-yl)-7-fluorobenzo[b] thiophene-3-carbonitrile], the half-maximal inhibitory concentration (IC50) at KRAS WT and on KRAS G12S was under 500 nM each time.
